Active and inactive are the calls of the source. The rule behind the calls is not given here. Square brackets hold non-standard residues; d marks the D form. Peptide text beside a SMILES is read from it. ξ: configuration not given here. Oic(3aξ,7aξ) = O=C(O)[C@@H]1CC2CCCCC2N1; Phe(4-F) = N[C@@H](Cc1ccc(F)cc1)C(=O)O
What was measured:
[1] = tested on: PC-12; assay: Neuroprotective activity against amyloid beta 42-induced toxicity in rat PC-12 cells assessed as cell viability at 10 uM measured after 6 hrs by MTT assay (reference value: 74.05%); assay type: functional; conditions: read-out: Activity
[2] = tested on: PC-12; assay: Neuroprotective activity against amyloid beta 42-induced toxicity in rat PC-12 cells assessed as cell viability at 4 uM measured after 6 hrs by MTT assay (reference value: 74.05%); assay type: functional; conditions: read-out: Activity
[3] = tested on: PC-12; assay: Neuroprotective activity against amyloid beta 42-induced toxicity in rat PC-12 cells assessed as cell viability at 2 uM measured after 6 hrs by MTT assay (reference value: 74.05%); assay type: functional; conditions: read-out: Activity
[4] = target: Amyloid-beta precursor protein (Homo sapiens) (UniProt P05067); assay: Inhibition of amyloid beta (1 to 42) (unknown origin) assessed as reduction in peptide aggregation at 10 uM measured after 24 hrs by thioflavin-T fluorescence assay relative to control
Sequence of Amyloid-beta precursor protein (Homo sapiens) (P05067 whole entry): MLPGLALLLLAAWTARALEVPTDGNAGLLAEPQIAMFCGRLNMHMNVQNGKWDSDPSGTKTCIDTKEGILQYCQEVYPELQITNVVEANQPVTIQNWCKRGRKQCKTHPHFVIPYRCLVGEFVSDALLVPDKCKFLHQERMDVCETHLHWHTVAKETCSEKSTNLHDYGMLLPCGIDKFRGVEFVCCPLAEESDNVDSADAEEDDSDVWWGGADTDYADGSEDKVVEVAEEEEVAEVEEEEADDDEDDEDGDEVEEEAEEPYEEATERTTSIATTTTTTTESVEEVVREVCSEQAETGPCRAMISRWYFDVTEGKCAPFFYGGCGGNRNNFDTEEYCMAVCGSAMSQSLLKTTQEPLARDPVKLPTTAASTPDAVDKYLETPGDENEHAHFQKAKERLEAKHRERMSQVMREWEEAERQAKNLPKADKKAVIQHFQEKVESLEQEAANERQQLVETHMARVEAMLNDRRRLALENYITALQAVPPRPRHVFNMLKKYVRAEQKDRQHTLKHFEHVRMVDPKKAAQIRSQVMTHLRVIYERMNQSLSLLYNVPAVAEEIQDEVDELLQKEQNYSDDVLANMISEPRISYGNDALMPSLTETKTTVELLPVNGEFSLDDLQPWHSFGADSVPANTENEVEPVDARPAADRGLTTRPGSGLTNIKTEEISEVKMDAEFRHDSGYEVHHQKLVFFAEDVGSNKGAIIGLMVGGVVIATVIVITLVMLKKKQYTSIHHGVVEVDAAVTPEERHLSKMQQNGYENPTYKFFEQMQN

[5] = target: Amyloid-beta precursor protein (Homo sapiens) (UniProt P05067); assay: Inhibition of amyloid beta (1 to 42) (unknown origin) assessed as reduction in peptide aggregation at 4 uM measured after 24 hrs by thioflavin-T fluorescence assay relative to control
[6] = target: Amyloid-beta precursor protein (Homo sapiens) (UniProt P05067); assay: Inhibition of amyloid beta (1 to 42) (unknown origin) assessed as reduction in peptide aggregation at 2 uM measured after 24 hrs by thioflavin-T fluorescence assay relative to control
[7] = target: Amyloid-beta precursor protein (Homo sapiens) (UniProt P05067); assay: Inhibition of amyloid beta (1 to 42) (unknown origin) aggregation assessed as relative fluorescence unit at 10 uM measured after 24 hrs by thioflavin-T fluorescence assay (reference value: 100%)
[8] = target: Amyloid-beta precursor protein (Homo sapiens) (UniProt P05067); assay: Inhibition of amyloid beta (1 to 42) (unknown origin) aggregation assessed as relative fluorescence unit at 4 uM measured after 24 hrs by thioflavin-T fluorescence assay (reference value: 100%)
[9] = target: Amyloid-beta precursor protein (Homo sapiens) (UniProt P05067); assay: Inhibition of amyloid beta (1 to 42) (unknown origin) aggregation assessed as relative fluorescence unit at 2 uM measured after 24 hrs by thioflavin-T fluorescence assay (reference value: 100%)
[10] = tested on: Cortical neurone; assay: Neuroprotective activity against amyloid beta 42-induced toxicity in rat primary cortical neurons at 0.1 uM; assay type: functional, cell-based
[11] = tested on: PC-12; assay: Neuroprotective activity against amyloid beta 42-induced toxicity in rat PC-12 cells assessed as cell viability at 1 uM measured after 6 hrs by MTT assay (reference value: 73.8%); assay type: functional; conditions: read-out: Activity
[12] = tested on: PC-12; assay: Neuroprotective activity against amyloid beta 42-induced toxicity in rat PC-12 cells assessed as cell viability at 0.5 uM measured after 6 hrs by MTT assay (reference value: 73.8%); assay type: functional; conditions: read-out: Activity
[13] = tested on: PC-12; assay: Neuroprotective activity against amyloid beta 42-induced toxicity in rat PC-12 cells assessed as cell viability at 0.1 uM measured after 6 hrs by MTT assay (reference value: 73.8%); assay type: functional; conditions: read-out: Activity
[14] = target: Amyloid-beta precursor protein (Homo sapiens) (UniProt P05067); assay: Inhibition of amyloid beta (1 to 42) (unknown origin) assessed as reduction in peptide aggregation at 1 uM measured after 24 hrs by thioflavin-T fluorescence assay relative to control
[15] = target: Amyloid-beta precursor protein (Homo sapiens) (UniProt P05067); assay: Inhibition of amyloid beta (1 to 42) (unknown origin) assessed as reduction in peptide aggregation at 0.5 uM measured after 24 hrs by thioflavin-T fluorescence assay relative to control
[16] = target: Amyloid-beta precursor protein (Homo sapiens) (UniProt P05067); assay: Inhibition of amyloid beta (1 to 42) (unknown origin) assessed as reduction in peptide aggregation at 0.1 uM measured after 24 hrs by thioflavin-T fluorescence assay relative to control
[17] = target: Amyloid-beta precursor protein (Homo sapiens) (UniProt P05067); assay: Disaggregation of preformed amyloid beta (1 to 42) (unknown origin) aggregation at 2 uM by thioflavin-T fluorescence assay; conditions: time 24-120 hrs, TDE = time-dependent effect
[18] = target: Amyloid-beta precursor protein (Homo sapiens) (UniProt P05067); assay: Inhibition of amyloid beta (1 to 42) (unknown origin) assessed as reduction in peptide aggregation at 0.5 to 2 uM measured at 24 hrs interval for […] by thioflavin-T fluorescence assay; conditions: dose 0.5-2 µM
[19] = target: Amyloid-beta precursor protein (Homo sapiens) (UniProt P05067); assay: Inhibition of amyloid beta (1 to 42) (unknown origin) aggregation at 2 uM measured after 24 hrs by ANS dye based fluorescence assay
[20] = target: Amyloid-beta precursor protein (Homo sapiens) (UniProt P05067); assay: Disaggregation of preformed amyloid beta (1 to 42) (unknown origin) aggregation at 2 uM measured after 24 hrs by ANS dye based fluorescence assay
[21] = target: Amyloid-beta precursor protein (Homo sapiens) (UniProt P05067); assay: Inhibition of amyloid beta (1 to 42) (unknown origin) aggregation at 2 uM measured after 24 hrs in presence of giant unilamellar vesicles by ANS dye based fluorescence assay
[22] = target: Amyloid-beta precursor protein (Homo sapiens) (UniProt P05067); assay: Inhibition of amyloid beta (1 to 42) (unknown origin) aggregation measured after 24 hrs by tyrosine fluorescence assay
[23] = target: Amyloid-beta precursor protein (Homo sapiens) (UniProt P05067); assay: Inhibition of amyloid beta (1 to 42) (unknown origin) aggregation assessed as protein with beta sheet conformation at 10 uM measured after 24 hrs by circular dichroism analysis (reference value: 66.4%); parameters: scale not given: the % may be the effect or the level left
[24] = target: Amyloid-beta precursor protein (Homo sapiens) (UniProt P05067); assay: Inhibition of amyloid beta (1 to 42) (unknown origin) aggregation assessed as protein with random coil conformation at 10 uM measured after 24 hrs by circular dichroism analysis (reference value: 5%); parameters: scale not given: the % may be the effect or the level left
[25] = tested on: PC-12; assay: Cytotoxicity against rat PC-12 cells assessed as reduction in cell viability at 20 uM measured after 6 hrs by MTT assay; assay type: cell-based; conditions: pc-12, 6 h
[26] = tested on: Cortical neurone; assay: Cytotoxicity against rat primary cortical neuron assessed as reduction in cell viability at 20 uM measured after 6 hrs by MTT assay; assay type: cell-based
[27] = target: Amyloid-beta precursor protein (Homo sapiens) (UniProt P05067); assay: Binding affinity to amyloid beta (1 to 42) (unknown origin) at 10 uM measured after 24 hrs by ESI-HRMS analysis
[28] = target: Amyloid-beta precursor protein (Homo sapiens) (UniProt P05067); assay: Binding affinity to amyloid beta (1 to 42) (unknown origin) assessed as amyloid beta (27 to 42)-adduct formation at 10 uM measured after 24 hrs by ESI-HRMS analysis
[29] = target: Amyloid-beta precursor protein (Homo sapiens) (UniProt P05067); assay: Binding affinity to amyloid beta (1 to 42) (unknown origin) assessed as absence of fibrillar assembly at 10 uM measured after 24 hrs by HR-TEM analysis
[30] = target: Amyloid-beta precursor protein (Homo sapiens) (UniProt P05067); assay: Binding affinity to amyloid beta (1 to 42) (unknown origin) assessed as absence of fibrillar assembly at 10 uM measured after 24 hrs by STEM analysis
[31] = Effective permeability of compound in pH 8 PBS buffer by PAMPA-BBB assay; assay type: ADME
[32] = Stability of compound in serum (unknown origin) at 5 uM measured up to 12 hrs by HPLC analysis; assay type: ADME, cell-free; conditions: read-out: Stabilty
[33] = Stability of compound in serum (unknown origin) assessed as peptide cleavage at 5 uM measured after 24 hrs by MS analysis; assay type: ADME, cell-free
[34] = target: Amyloid-beta precursor protein (Homo sapiens) (UniProt P05067); assay: Disaggregation of preformed amyloid beta (1 to 42) (unknown origin) aggregation at 2 uM measured at 24 hrs interval for 120 hrs by thioflavin-T fluorescence assay relative to control
[35] = target: Amyloid-beta precursor protein (Homo sapiens) (UniProt P05067); assay: Disaggregation of preformed amyloid beta (1 to 42) (unknown origin) aggregation at 1 uM measured at 24 hrs interval for 120 hrs by thioflavin-T fluorescence assay relative to control
[36] = target: Amyloid-beta precursor protein (Homo sapiens) (UniProt P05067); assay: Disaggregation of preformed amyloid beta (1 to 42) (unknown origin) aggregation at 0.5 uM measured at 24 hrs interval for 120 hrs by thioflavin-T fluorescence assay relative to control
[37] = target: Amyloid-beta precursor protein (Homo sapiens) (UniProt P05067); assay: Binding affinity to amyloid beta (1 to 42) (unknown origin) assessed as amyloid beta (25 to 42)-adduct formation at 10 uM measured after 24 hrs by ESI-HRMS analysis
[38] = target: Amyloid-beta precursor protein (Homo sapiens) (UniProt P05067); assay: Binding affinity to amyloid beta (1 to 42) (unknown origin) assessed as amyloid beta (2 to 42)-adduct formation at 10 uM measured after 24 hrs by ESI-HRMS analysis

Row | SMILES | viability at 10 µM [1] | viability at 4 µM [2] | viability at 2 µM [3] | inhibition [4] | inhibition [5] | inhibition [6] | RFU [7] | RFU [8] | RFU [9] | Activity [10] | viability at 1 µM [11] | viability at 0.5 µM [12] | viability at 0.1 µM [13] | inhibition [14] | inhibition [15] | inhibition [16] | Activity [17] | inhibition [18] | inhibition [19] | Activity [20] | other results
1 | CC[C@H](C)[C@H](NC(=O)[C@@H]1CC2CCCCC2N1C(=O)[C@@H](N)C(C)C)C(=O)N[C@@H](C)C(=O)O (some centres undefined) (H-V[Oic(3aξ,7aξ)]IA-OH) | 100% | 100% | 100% | 100% | 100% | 100% | 53.2% | 53.3% | 53% | Active | 92.3% | 80.5% | 84.9% | 74.8% | 68% | 61.2% | Tde | Active | Active | Active | inhibition [21]: Active; inhibition [22]: Active; Activity [23]: 14.2%; Activity [24]: 60%; Activity [25]: Non-Toxic; Activity [26]: Non-Toxic; Activity [27]: Active; Activity [28]: Active; Activity [29]: Active; Activity [30]: Active; Peff [31]: Permeable; remaining at 12 h, 5 µM [32]: 90%; Stabilty [33]: Unstable
2 | CC[C@H](C)[C@H](NC(=O)[C@@H](NC(=O)[C@@H](N)Cc1ccc(F)cc1)C(C)C)C(=O)N[C@@H](C)C(=O)O (H-[Phe(4-F)]VIA-OH) | 100% | 100% | 100% | 91.7% | 97.5% | 100% | 57.2% | 54.5% | 53.1% | Active | 97.2% | 83.1% | 79.3% | 83.1% | 81% | 79.9% | Tde | Active | Active | Active | inhibition [34]: 61%; inhibition [35]: 42.5%; inhibition [36]: 32.1%; inhibition [21]: Active; inhibition [22]: Active; Activity [23]: 13.6%; Activity [24]: 97.6%; Activity [25]: Non-Toxic; Activity [26]: Non-Toxic; Activity [37]: Active; Activity [38]: Active; Activity [29]: Active; Activity [30]: Active; Peff [31]: Permeable; remaining at 12 h, 5 µM [32]: 90%; Stabilty [33]: Unstable

Source: ChEMBL document CHEMBL4732135, “Structural and mechanistic insights into the inhibition of amyloid-β aggregation by Aβ fragment derived synthetic peptides” (Eur J Med Chem, 2021)
